How the values were obtained:
lesion / normal bone = assay: Ratio Q of Tc-99m uptake in a lesion to uptake in normal bone (own investigations); format: in vivo; details: compared with A-EDP, DMA-MDP, EA-MDP, DEA-MDP; Q=(% Tc/g of lesion)/(% Tc/g of normal bone)
Description: Many investigations carried out to date have been devoted to the search for compounds having a more favorable uptake ratio between the lesion and normal skeleton.

[1] = in words, cited from earlier work
osteosarcoma = assay: Scintigraphy in osteosarcoma model, ratio (Q) of count density in the tumor to that in the contralateral tibia; format: in vivo, Sprague-Dawley rats; details: 0.01 mg i.v., 9.25 MBq Tc-99m, 4 weeks after tumor implantation
Protocol: Tc-99m-HMPD was tested on the model of osteosarcoma in Sprague-Dawley rats. […] The investigation was carried out 4 weeks after tumor implantation on a total of 30 animals. 1. Investigation schedule:
Day 1 Tc-99m-MDP (reference substance)
Scintigraphy 1, 90 and 180 minutes after injection
Storage of the scintigraphic data for the evaluation 2. Evaluation
Measurement of whole-body activity from the scintigraphic data
Ratio (Q) of the count density per unit area in the tumor to that in the contralateral tibia
Comparison of the quotient QHMPD with that for the products QMDP and QDBA-MDP.

bone lesions = details: compared with DPD and MDP; cited from earlier work
[2] = Organ distribution of Tc-99m-HMPD in the rat 2 h after injection as a function of the amount administered (Table 3); format: in vivo; details: for Bladder + urine / Blood / Bone / Kidneys / Liver / Lung / Muscle / Stomach / Thyroid: i.v., 2 h
Protocol: The product prepared as in Example 2 (pH=7) was used for the following experiment.
Organ distribution of Tc-99m-HMPD in the rat
(n = 3) 2 h after injection as a function of
the amount administered (mg) and as a % of the
injected dose per organ or tissue. The various
HMPD amounts were administered i.v. in 0.1 ml

[3] = Stability of Tc-99m-HMPD by gel chromatography on polyacrylamide gel (Bio Gel P-10), up to 24 h after preparation; format: physicochemical; details: for % Activity in the HMPD: eluent 0.9% NaCl
Protocol: The labeling yield of Tc-99m-HMPD was determined, and the purity and stability were tested, by thin-layer chromatographic methods, gel filtration and HPLC.
2. The stability for a period of up to 24 h after preparation was tested by gel chromatography on polyacrylamide gel (Bio Gel® P-10, manufactured by Bio-Rad, California, USA) using 0.9% NaC1 solution as eluent (FIG. 1). The proportion of the activity in the HMPD, that in the form of pertechnetate and that remaining on the column were measured (Table 1). The latter is greater than the proportion of ^99m -Tc^4+ because non-specific adsorption of technetium to the support material is always observed.

For `CCCCN(CCCC)C(P(=O)(O)O)P(=O)(O)O` [DBA-MDP, N,N-dibutylaminomethanediphosphonic acid], the “ratio Q for uptake of Tc-99m in a lesion vs normal bone” value (lesion / normal bone) is listed as “by far the highest ratios Q”, the blood clearance ([1]; current state of knowledge) is listed as “not optimal” and the bone/background ratio [1] is listed as “relatively poor”. The “Lesion quotient (Q)” value (osteosarcoma) was 1.16 and the “accumulation in the lesions” value (bone lesions) was “distinctly higher”.
For “1-hydroxy-3-methylphosphinico-1,1-propanediphosphonic acid [Tc-99m-HMPD]”, the “Bladder + urine” value ([2]; 0.001 mg) was 54.1 % of the injected dose per org, the Blood ([2]; 0.001 mg) was 0.7 % of the injected dose per org and the Bone ([2]; 0.001 mg) was 32.9 % of the injected dose per org. For the same compound, the Kidneys ([2]; 0.001 mg) was 1.51 % of the injected dose per org, the Liver ([2]; 0.001 mg) was 0.27 % of the injected dose per org and the Lung ([2]; 0.001 mg) was 0.080 % of the injected dose per org. For the same compound, the Muscle ([2]; 0.001 mg) was 0.8 % of the injected dose per org, the Stomach ([2]; 0.001 mg) was 0.151 % of the injected dose per org and the Thyroid ([2]; 0.001 mg) was 0.008 % of the injected dose per org. For the same compound, the “Bladder + urine” value ([2]; 0.01 mg) was 55.6 % of the injected dose per org, the Blood ([2]; 0.01 mg) was 0.4 % of the injected dose per org and the Bone ([2]; 0.01 mg) was 34.7 % of the injected dose per org. For the same compound, the Kidneys ([2]; 0.01 mg) was 1.05 % of the injected dose per org, the Liver ([2]; 0.01 mg) was 0.18 % of the injected dose per org and the Lung ([2]; 0.01 mg) was 0.048 % of the injected dose per org. For the same compound, the Muscle ([2]; 0.01 mg) was 0.6 % of the injected dose per org, the Stomach ([2]; 0.01 mg) was 0.091 % of the injected dose per org and the Thyroid ([2]; 0.01 mg) was 0.008 % of the injected dose per org. For the same compound, the “Bladder + urine” value ([2]; 0.1 mg) was 56.9 % of the injected dose per org, the Blood ([2]; 0.1 mg) was 0.4 % of the injected dose per org and the Bone ([2]; 0.1 mg) was 32.6 % of the injected dose per org. For the same compound, the Kidneys ([2]; 0.1 mg) was 0.94 % of the injected dose per org, the Liver ([2]; 0.1 mg) was 0.17 % of the injected dose per org and the Lung ([2]; 0.1 mg) was 0.480 % of the injected dose per org. The Muscle ([2]; 0.1 mg) was 0.6 % of the injected dose per org, the Stomach ([2]; 0.1 mg) was 0.092 % of the injected dose per org and the Thyroid ([2]; 0.1 mg) was 0.011 % of the injected dose per org. The “Bladder + urine” value ([2]; 1 mg) was 59.1 % of the injected dose per org, the Blood ([2]; 1 mg) was 0.8 % of the injected dose per org and the Bone ([2]; 1 mg) was 28.7 % of the injected dose per org. The Kidneys ([2]; 1 mg) was 1.03 % of the injected dose per org, the Liver ([2]; 1 mg) was 0.22 % of the injected dose per org and the Lung ([2]; 1 mg) was 0.079 % of the injected dose per org. The Muscle ([2]; 1 mg) was 1.1 % of the injected dose per org, the Stomach ([2]; 1 mg) was 0.090 % of the injected dose per org and the Thyroid ([2]; 1 mg) was 0.007 % of the injected dose per org. The “liver uptake with larger administered amounts” value ([2]; in words) was “no increase in liver uptake at the expense of skeletal accumulation”, the “% Tc-99m Residue on the column” value ([3]; 5 min after preparation) was 6.8% and the “% Tc-99m as pertechnetate” value ([3]; 5 min after preparation) was 0.6%. For the same compound, the “% Activity in the HMPD” value ([3]; 5 min after preparation) was 92.6%, the “% Tc-99m Residue on the column” value ([3]; 2 h after preparation) was 7.5% and the “% Tc-99m as pertechnetate” value ([3]; 2 h after preparation) was 0.4%. For the same compound, the “% Activity in the HMPD” value ([3]; 2 h after preparation) was 92.1%, the “% Tc-99m Residue on the column” value ([3]; 7 h after preparation) was 4.6% and the “% Tc-99m as pertechnetate” value ([3]; 7 h after preparation) was 0.4%. The “% Activity in the HMPD” value ([3]; 7 h after preparation) was 95.0%, the “% Tc-99m Residue on the column” value ([3]; 24 h after preparation) was 5.2% and the “% Tc-99m as pertechnetate” value ([3]; 24 h after preparation) was 0.8%. For the same compound, the “% Activity in the HMPD” value ([3]; 24 h after preparation) was 94.0%, the product stability ([3]; summary in words) was “stable for a whole working day” and the “proportion of Tc-99m activity present in the HMPD” value ([3]; up to 24 h after preparation) was “more than 90%”. The “Lesion quotient (Q)” value (osteosarcoma) was 1.27.
With `O=P(O)(O)CP(=O)(O)O` [MDP, methanediphosphonic acid] the “Lesion quotient (Q)” value (osteosarcoma) was 1.0.

Source: patent US4910012A, “Products containing Tc-99-m-ωalkylphosphinico-1-hydroxyalkane-1,1-diphosphonates for bone scintigraphy and a process for the preparation of these products” (Hoechst Aktiengesellschaft, priority 1988, dated 1990)
